{"source": "patent US8557272B2", "about": "“Device for local and/or regional delivery employing liquid formulations of therapeutic agents” (Cordis Corporation, priority 2004, dated 2013)", "key": {"[1]": {"test": "MVP randomized clinical trial, angiographic and clinical outcome", "format": "in vivo, human", "conditions": "probucol given alone, compared to placebo", "source_text": "It was not possible to determine with angiography alone whether probucol acted via inhibition of tissue hyperplasia or improvement in vascular remodeling. […] In addition, the invention enables the skilled practitioner to use probucol in conjunction with other percutaneous coronary interventions such as stenting if it is deemed appropriate.\nThe present invention concerns the IVUS substudy from the MVP restenosis trial. MVP was a double-blind placebo-controlled randomized clinical trial with four study groups. The protocol was approved by the Montreal Heart Institute institutional review board. The MVP study design, inclusion and exclusion criteria have been previously described (N Engl J Med 1997; 365-372). Briefly, patients referred for elective coronary angioplasty were evaluated at least 30 days prior to their scheduled procedure. Eligible patients were asked to provide written informed consent. Patients were eligible if they were scheduled to undergo standard balloon angioplasty on at least one native coronary artery and had at least one de novo target lesion with luminal narrowing of fifty percent or more by caliper measurements.\nBeginning thirty days prior to scheduled angioplasty, patients were randomly assigned to receive either probucol alone, multivitamins alone, the combination of probucol and multivitamins, or placebo. Probucol 500 mg or matched placebo was administered twice daily. The multivitamin complex, consisting of vitamin E 700 IU, vitamin C 500 mg and beta-carotene 30,000 IU, or matched placebo was also administered in one tablet twice daily. […] The sequence of contrast injections with the exact degree of angulation was recorded and used for every angiogram. Coronary arteriograms (pre-, post-procedure, and final follow-up) were analyzed together using the Coronary Measurement System (CMS), as previously reported. […] Patients were readmitted for follow-up coronary angiography at five to seven months. […]"}, "[2]": {"test": "MVP IVUS substudy after balloon angioplasty", "format": "in vivo, human", "source_text": "Serial intravascular ultrasound (IVUS) examinations have been performed in a consecutive series of patients involved in the MVP trial. By providing tomographic views of coronary arteries with high resolution, IVUS allows quantitative assessment of changes in arterial lumen and wall dimensions. We were therefore able in this study to determine the pathophysiology of coronary restenosis after balloon angioplasty in patients systematically undergoing follow-up IVUS examination and determine the effect of probucol on tissue hyperplasia and vascular remodeling after coronary angioplasty. The present invention concerns the IVUS substudy from the MVP restenosis trial. […] Briefly, patients referred for elective coronary angioplasty were evaluated at least 30 days prior to their scheduled procedure. […] The sequence of contrast injections with the exact degree of angulation was recorded and used for every angiogram. Coronary arteriograms (pre-, post-procedure, and final follow-up) were analyzed together using the Coronary Measurement System (CMS), as previously reported. […] Patients were readmitted for follow-up coronary angiography at five to seven months. […] IVUS imaging was monitored by an experienced cardiologist, but the angioplasty operator was blinded to ultrasound results to avoid altering standard balloon angioplasty practice. […]"}, "[3]": {"tested_on": "LDL", "test": "LDL peroxidation lag phase ex vivo (diene conjugates after copper ions)", "design": "species or system human", "conditions": "treatment for one month; preliminary results", "source_text": "Dietary intervention and smoking habits were similar in all groups. Probucol may simply be a more powerful antioxidant than the combination of vitamins. To this regard, preliminary results from the continuous spectrophotometric monitoring of diene conjugates in LDL after the addition of copper ions to the isolated lipoprotein ex vivo (Free Radic Res Commun 1989; 6:67-75) of MVP patients are noteworthy."}}, "data": [{"smiles": "CC(C)(Sc1cc(C(C)(C)C)c(O)c(C(C)(C)C)c1)Sc1cc(C(C)(C)C)c(O)c(C(C)(C)C)c1", "note": "[probucol, 4,4′-([1-methylethylidene)bis(thio)]bis-[2,6-bis(1,1-dimethylethyl)phenol]]", "values": [{"measurement": "reduction of angiographic lumen loss", "setting": "[1]", "result": "sixty-eight percent"}, {"measurement": "reduction of restenosis rate per segment", "setting": "[1]", "result": "forty-seven percent"}, {"measurement": "reduction of the need for repeat angioplasty at 6 month", "setting": "[1]", "result": "fifty-eight percent"}, {"measurement": "reduction in lumen loss assessed by IVUS", "setting": "[2]; compared to non-probucol treated patients", "result": 0.79, "unit": "mm^2"}, {"measurement": "reduction in lumen loss assessed by IVUS", "setting": "[2]; probucol given alone compared to the placebo group only", "result": 1.06, "unit": "mm^2"}, {"measurement": "protection against LDL oxidation (lag phase for LDL peroxidation)", "setting": "[3]", "result": "significantly greater protection against LDL oxidation than vitamins alone or the combination of probucol and vitamins"}]}]}
